# Measurements: US8367328B2, “Method for synthesizing DNA” (Takara Bio Inc., priority 1998, dated 2013)
# Molecular target: T1, Pfu DNA Polymerase II (Pyrococcus furiosus, UniProt P81409+P81412)
# T1 construct: made in house; host or cells: Escherichia coli JM109/pFU1001 (FERM BP-5579)
# T1 sequence (P81409 1-1263): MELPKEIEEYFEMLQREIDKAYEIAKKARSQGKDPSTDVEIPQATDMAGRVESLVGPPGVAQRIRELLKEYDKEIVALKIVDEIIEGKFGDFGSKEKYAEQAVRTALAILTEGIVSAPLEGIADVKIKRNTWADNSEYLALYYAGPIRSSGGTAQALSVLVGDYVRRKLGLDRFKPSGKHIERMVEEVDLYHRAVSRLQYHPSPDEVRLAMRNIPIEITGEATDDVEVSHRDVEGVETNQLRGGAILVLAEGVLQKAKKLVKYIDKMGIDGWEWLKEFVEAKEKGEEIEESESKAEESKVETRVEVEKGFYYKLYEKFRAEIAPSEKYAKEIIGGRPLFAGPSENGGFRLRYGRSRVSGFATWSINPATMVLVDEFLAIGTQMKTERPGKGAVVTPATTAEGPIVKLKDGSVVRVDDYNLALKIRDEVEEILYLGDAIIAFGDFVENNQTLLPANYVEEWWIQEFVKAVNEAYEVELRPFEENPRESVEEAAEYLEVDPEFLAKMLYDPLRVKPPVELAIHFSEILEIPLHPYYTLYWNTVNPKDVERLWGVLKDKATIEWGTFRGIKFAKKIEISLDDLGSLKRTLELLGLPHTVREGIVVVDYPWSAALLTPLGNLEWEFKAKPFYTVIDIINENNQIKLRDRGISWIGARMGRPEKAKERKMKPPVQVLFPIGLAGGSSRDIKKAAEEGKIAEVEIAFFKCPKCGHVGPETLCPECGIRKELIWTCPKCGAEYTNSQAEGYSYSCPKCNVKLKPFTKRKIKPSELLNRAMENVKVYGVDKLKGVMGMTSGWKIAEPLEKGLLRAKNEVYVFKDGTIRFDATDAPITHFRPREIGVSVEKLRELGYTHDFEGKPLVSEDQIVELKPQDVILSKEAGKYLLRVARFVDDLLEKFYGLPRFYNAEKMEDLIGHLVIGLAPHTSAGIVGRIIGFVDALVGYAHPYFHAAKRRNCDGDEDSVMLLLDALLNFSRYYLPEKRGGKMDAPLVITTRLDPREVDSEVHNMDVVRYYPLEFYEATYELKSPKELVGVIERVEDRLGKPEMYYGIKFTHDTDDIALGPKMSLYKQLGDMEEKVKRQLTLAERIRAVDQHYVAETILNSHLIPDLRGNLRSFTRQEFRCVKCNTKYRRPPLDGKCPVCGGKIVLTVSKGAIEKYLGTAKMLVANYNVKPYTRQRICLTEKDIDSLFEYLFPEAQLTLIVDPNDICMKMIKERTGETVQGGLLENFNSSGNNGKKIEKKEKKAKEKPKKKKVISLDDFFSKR
# T1 sequence (P81412 1-613): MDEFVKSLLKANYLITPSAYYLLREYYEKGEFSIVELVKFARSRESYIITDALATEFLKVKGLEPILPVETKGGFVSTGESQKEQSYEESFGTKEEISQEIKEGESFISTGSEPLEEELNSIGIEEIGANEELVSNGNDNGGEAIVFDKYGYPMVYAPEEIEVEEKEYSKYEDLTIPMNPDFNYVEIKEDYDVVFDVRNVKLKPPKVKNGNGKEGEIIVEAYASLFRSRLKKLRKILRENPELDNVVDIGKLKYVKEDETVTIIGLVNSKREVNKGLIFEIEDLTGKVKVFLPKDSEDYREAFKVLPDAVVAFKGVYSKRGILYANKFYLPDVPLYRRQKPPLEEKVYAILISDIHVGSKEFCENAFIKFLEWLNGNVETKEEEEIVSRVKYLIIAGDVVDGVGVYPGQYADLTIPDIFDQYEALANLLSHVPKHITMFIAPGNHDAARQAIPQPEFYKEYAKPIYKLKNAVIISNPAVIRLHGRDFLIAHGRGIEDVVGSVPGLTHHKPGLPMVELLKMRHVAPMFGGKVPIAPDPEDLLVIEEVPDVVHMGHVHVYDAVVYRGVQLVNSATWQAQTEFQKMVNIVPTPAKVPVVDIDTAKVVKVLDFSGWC
# Experiment: PCR with Pfu DNA Polymerase II in the presence of acidic substances (λDNA template)
# Type: biochemical
# Settings: 0.5 kb fragment; 100 pg λDNA, primers λ1/λ2, 25 cycles 98°C 5 s–66°C 15 s; amount added 1 μg
# Protocol: A reaction mixture comprising λDNA as a template, primers λ1 and λ3 as a primer pair, and Pfu DNA Polymerase II as DNA polymerase was prepared, and PCR was carried out. The composition of the reaction mixture is as follows.
# 10 mM Tris-hydrochloric acid (pH 9.2), 75 mM potassium chloride, 6 mM magnesium chloride, 0.4 mM each of dATP, dCTP, dGTP and dTTP, 0.01% BSA, 1.25 U of Pfu DNA Polymerase II, 500 pg of λDNA, and 5 pmol each of primers λ1 and λ3 (a final volume being 25 μl). […]
# Using the sulfated-fucose-containing Polysaccharide-F obtained in Example 6 described above, dextran sulfate powder (manufactured by Onco), or sodium alginate (100 to 150 centipoises, manufactured by Wako Pure Chemicals), the effects of these acidic substances on the activity of Pfu DNA Polymerase II were examined. A reaction mixture comprising λDNA as a template, primers λ1 and λ2 as a primer pair, and Pfu DNA Polymerase II as DNA polymerase was prepared, and PCR was carried out. The composition of the reaction mixture is as follows.
# (§1) 10 mM Tris-hydrochloric acid, pH 9.2, 75 mM potassium chloride, 6 mM magnesium chloride, 0.4 mM each of dATP, dCTP, dGTP and dTTP, 0.01% BSA, 1.25 U of Pfu DNA Polymerase II, 100 pg of λDNA, and 5 pmol each of primers λ1 and λ2 (a final volume being 25 μl). Further, 10 ng of the sulfated-fucose-containing polysaccharide-F, 10 ng of dextran sulfate powder, or 1 μg of sodium alginate was respectively added to the above reaction mixture.
# (§2) The reaction in 25 cycles was carried out for each of these reaction mixtures, wherein one cycle of reaction comprises a process consisting of 98° C., 5 seconds—66° C., 15 seconds. Thereafter, 5 μl of the resulting reaction mixture was subjected to electrophoresis on 1% agarose gel containing ethidium bromide in an amount of 0.00005%, whereby an amplified fragment was confirmed.
# Further, studies were conducted on the effects of the sulfated-fucose-containing polysaccharide-F obtained in Example 6 described above, the sulfated-fucose-containing polysaccharide-U obtained in Example 7 described above, or sodium polyglutamate (manufactured by Sigma) as an acidic substance. A reaction mixture for PCR was prepared in the same manner as described above except for changing the amount of template λDNA to 500 pg and the primer pairs to primers λ1 and λ3. Five nanograms of the sulfated-fucose-containing polysaccharide-F, 5 ng, 10 ng, 20 ng or 30 ng each of the sulfated-fucose-containing polysaccharide-U, or 250 ng, 500 ng, 750 ng or 1000 ng each of sodium polyglutamate was respectively added to the above reaction mixture.
# as §2, with “reaction” for “reaction in 25 cycles”, “in 30 cycles,” for “for each of these reaction mixtures,”, “After the termination of the reaction,” for “Thereafter,”
# Using the sulfated-fucose-containing polysaccharide-F obtained in Example 6 described above, the effects on the activity of Pfu DNA Polymerase II were examined. A reaction mixture comprising λDNA as a template, primers λ1 and λ2 as a primer pair, and Pfu DNA Polymerase II as DNA polymerase was prepared, and PCR was carried out. The composition of the reaction mixture is as follows.
# as §1, with “500” for “100”, “polysaccharide-F” for “polysaccharide-F, 10 ng of dextran sulfate powder, or 1 μg of sodium alginate”
# The reaction in 30 cycles was carried out for each of these reaction mixtures, wherein one cycle of reaction comprises a process consisting of 98° C., 5 seconds—66° C., 15 seconds. […]
substance,measurement,value
sodium alginate,Amplification Results,+ (Amplification being observed)
